Data published in PubChem BioAssay (NCI).
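How tested: cells in 96-well plates exposed to compound for 48 hours at five concentrations. Abbreviation: GI50, concentration required for 50% inhibition of growth. The concentration for full growth arrest is given as TGI.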

How the values were obtained:
Assay in all cases: DTP human tumour cell line panel, 48 h
OVCAR-8 ovarian = system: OVCAR-8 ovarian
KM12 colon = system: KM12 colon
NCI-H460 lung = system: NCI-H460 lung
TK-10 renal = system: TK-10 renal
SK-MEL-5 melanoma = system: SK-MEL-5 melanoma
UO-31 renal = system: UO-31 renal
NCI-H522 lung = system: NCI-H522 lung
CAKI-1 renal = system: CAKI-1 renal
IGROV1 ovarian = system: IGROV1 ovarian
MCF7 breast = system: MCF7 breast
HL-60(TB) leukemia = system: HL-60(TB) leukemia
HCT-116 colon = system: HCT-116 colon
NCI-H226 lung = system: NCI-H226 lung
OVCAR-3 ovarian = system: OVCAR-3 ovarian
786-0 renal = system: 786-0 renal
SF-295 CNS = system: SF-295 CNS
A549 NSCLC = system: A549 NSCLC
COLO 205 colon = system: COLO 205 colon
K-562 leukemia = system: K-562 leukemia
OVCAR-5 ovarian = system: OVCAR-5 ovarian
A498 renal = system: A498 renal
HOP-62 NSCLC = system: HOP-62 NSCLC
UACC-257 melanoma = system: UACC-257 melanoma
SNB-75 CNS = system: SNB-75 CNS
OVCAR-4 ovarian = system: OVCAR-4 ovarian
MALME-3M melanoma = system: MALME-3M melanoma
MDA-MB-231 breast = system: MDA-MB-231 breast
SF-268 CNS = system: SF-268 CNS
T-47D breast = system: T-47D breast
U251 CNS = system: U251 CNS
SK-OV-3 ovarian = system: SK-OV-3 ovarian
SN12C renal = system: SN12C renal
HCT-15 colon = system: HCT-15 colon
NCI-H23 lung = system: NCI-H23 lung
MDA-MB-435 = system: MDA-MB-435
DU-145 prostate = system: DU-145 prostate
SR leukemia = system: SR leukemia
M14 melanoma = system: M14 melanoma
EKVX NSCLC = system: EKVX NSCLC
HOP-92 NSCLC = system: HOP-92 NSCLC
MOLT-4 leukemia = system: MOLT-4 leukemia
PC-3 prostate = system: PC-3 prostate
SNB-19 CNS = system: SNB-19 CNS
LOX IMVI melanoma = system: LOX IMVI melanoma
UACC-62 melanoma = system: UACC-62 melanoma
BT-549 breast = system: BT-549 breast
CCRF-CEM leukemia = system: CCRF-CEM leukemia
SK-MEL-28 melanoma = system: SK-MEL-28 melanoma
ACHN renal = system: ACHN renal
SK-MEL-2 melanoma = system: SK-MEL-2 melanoma
SW-620 colon = system: SW-620 colon
HCC-2998 colon = system: HCC-2998 colon
NCI/ADR-RES ovarian = system: NCI/ADR-RES ovarian
RXF 393 renal = system: RXF 393 renal
RPMI-8226 leukemia = system: RPMI-8226 leukemia
HT29 colon = system: HT29 colon
HS 578T breast = system: HS 578T breast
SF-539 CNS = system: SF-539 CNS

## CN1C/C=C/CCOc2cccc(c2)-c2ccnc(n2)Nc2cccc(c2)C1
OVCAR-8 ovarian
  GI50: 41.2 nM
  TGI: 1260 nM
KM12 colon
  GI50: 33.3 nM
  TGI: 176 nM
NCI-H460 lung
  GI50: 34.7 nM
  TGI: 352 nM
TK-10 renal
  GI50: 48 nM
  TGI: 506 nM
SK-MEL-5 melanoma
  GI50: 31.8 nM
  TGI: 222 nM
UO-31 renal
  GI50: 25.1 nM
  TGI: 84.9 nM
NCI-H522 lung
  GI50: 52.2 nM
  TGI: 233 nM
CAKI-1 renal
  GI50: 39 nM
  TGI: 460 nM
IGROV1 ovarian
  GI50: 32.4 nM
  TGI: 338 nM
MCF7 breast
  GI50: 30.9 nM
  TGI: 1170 nM
HL-60(TB) leukemia
  GI50: 25.9 nM
  TGI: 94.1 nM
HCT-116 colon
  GI50: 27.7 nM
  TGI: 1080 nM
NCI-H226 lung
  GI50: 34.7 nM
  TGI: 442 nM
OVCAR-3 ovarian
  GI50: 33.6 nM
  TGI: 1230 nM
786-0 renal
  GI50: 31.7 nM
  TGI: 203 nM
SF-295 CNS
  GI50: 32.1 nM
  TGI: 434 nM
A549 NSCLC
  GI50: 39.4 nM
  TGI: 1120 nM
COLO 205 colon
  GI50: 20.4 nM
  TGI: 44.2 nM
K-562 leukemia
  GI50: 98.9 nM
  TGI: > 20800 nM
OVCAR-5 ovarian
  GI50: 32.3 nM
  TGI: 2080 nM
A498 renal
  GI50: 35.6 nM
  TGI: 110 nM
HOP-62 NSCLC
  GI50: 42.2 nM
  TGI: 376 nM
UACC-257 melanoma
  GI50: 50.5 nM
  TGI: 225 nM
SNB-75 CNS
  GI50: 39 nM
  TGI: 184 nM
OVCAR-4 ovarian
  GI50: 108 nM
  TGI: 1310 nM
MALME-3M melanoma
  GI50: 46.9 nM
  TGI: 179 nM
MDA-MB-231 breast
  GI50: 73.1 nM
  TGI: 1080 nM
SF-268 CNS
  GI50: 42.5 nM
  TGI: 264 nM
T-47D breast
  GI50: 43.7 nM
  TGI: 447 nM
U251 CNS
  GI50: 42.1 nM
  TGI: 1070 nM
SK-OV-3 ovarian
  GI50: 174 nM
  TGI: 3820 nM
SN12C renal
  GI50: 44.2 nM
  TGI: 2730 nM
HCT-15 colon
  GI50: 36 nM
  TGI: 3180 nM
NCI-H23 lung
  GI50: 57.7 nM
  TGI: 289 nM
MDA-MB-435
  GI50: 36.6 nM
  TGI: 153 nM
DU-145 prostate
  GI50: 40.2 nM
  TGI: 1400 nM
SR leukemia
  GI50: 20.1 nM
M14 melanoma
  GI50: 39.1 nM
  TGI: 181 nM
EKVX NSCLC
  GI50: 50.1 nM
  TGI: 666 nM
HOP-92 NSCLC
  GI50: 42.8 nM
  TGI: 242 nM
MOLT-4 leukemia
  GI50: 39.6 nM
  TGI: 959 nM
PC-3 prostate
  GI50: 51.9 nM
  TGI: 1390 nM
SNB-19 CNS
  GI50: 57.4 nM
  TGI: 4400 nM
LOX IMVI melanoma
  GI50: 24.8 nM
  TGI: 1120 nM
UACC-62 melanoma
  GI50: 32.8 nM
  TGI: 128 nM
BT-549 breast
  GI50: 39.8 nM
  TGI: 210 nM
CCRF-CEM leukemia
  GI50: 38.6 nM
SK-MEL-28 melanoma
  GI50: 34.9 nM
  TGI: 188 nM
ACHN renal
  GI50: 30.7 nM
  TGI: 1450 nM
SK-MEL-2 melanoma
  GI50: 37.4 nM
  TGI: 125 nM
SW-620 colon
  GI50: 39.6 nM
  TGI: 969 nM
HCC-2998 colon
  GI50: 48 nM
  TGI: 623 nM
NCI/ADR-RES ovarian
  GI50: 56.1 nM
  TGI: 963 nM
RXF 393 renal
  GI50: 20.7 nM
  TGI: 44.7 nM
RPMI-8226 leukemia
  GI50: 58 nM
  TGI: 879 nM
HT29 colon
  GI50: 37.6 nM
  TGI: 416 nM
HS 578T breast
  GI50: 36.7 nM
  TGI: 438 nM
SF-539 CNS
  GI50: 33.8 nM
  TGI: 155 nM
